# Earlier results in US20250186613A1 (The Trustees of the University of Pennsylvania, priority 2022, published 2025).
# Where two headings read alike, the source gives them in different places.
# Key:
# [1] = cited from earlier work
# [2] = daily 0.05 mg/kg subcutaneous, cited from earlier work
# GLP-2 receptor = target: T1, GLP-2 receptor (Homo sapiens, UniProt O95838); conditions: relative to GLP2; cited from earlier work
# T1 sequence (O95838 1-553): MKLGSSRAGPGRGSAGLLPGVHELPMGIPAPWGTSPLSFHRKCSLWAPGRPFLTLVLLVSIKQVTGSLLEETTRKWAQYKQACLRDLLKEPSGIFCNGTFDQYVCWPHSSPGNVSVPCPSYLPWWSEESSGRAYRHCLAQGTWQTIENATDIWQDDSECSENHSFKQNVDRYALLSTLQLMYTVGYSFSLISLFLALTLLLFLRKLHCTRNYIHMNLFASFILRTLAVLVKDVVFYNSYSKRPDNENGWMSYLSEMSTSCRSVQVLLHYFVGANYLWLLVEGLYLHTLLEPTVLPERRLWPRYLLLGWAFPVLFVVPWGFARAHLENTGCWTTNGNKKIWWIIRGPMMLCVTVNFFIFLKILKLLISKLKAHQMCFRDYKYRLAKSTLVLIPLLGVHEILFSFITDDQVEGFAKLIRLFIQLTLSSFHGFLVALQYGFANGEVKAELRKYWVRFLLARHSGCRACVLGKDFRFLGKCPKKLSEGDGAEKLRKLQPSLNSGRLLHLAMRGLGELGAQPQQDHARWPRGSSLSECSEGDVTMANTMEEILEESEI
compound,measurement,setting,value
CC[C@H](C)[C@H](NC(=O)[C@H](Cc1ccccc1)NC(=O)[C@H](CC(=O)O)NC(=O)[C@H](CCCN=C(N)N)NC(=O)[C@H](C)NC(=O)[C@H](C)NC(=O)[C@H](CC(C)C)NC(=O)[C@H](CC(N)=O)NC(=O)[C@H](CC(=O)O)NC(=O)[C@H](CC(C)C)NC(=O)[C@@H](NC(=O)[C@@H](NC(=O)[C@H](CC(N)=O)NC(=O)[C@H](CCSC)NC(=O)[C@H](CCC(=O)O)NC(=O)[C@H](CC(=O)O)NC(=O)[C@H](CO)NC(=O)[C@H](Cc1ccccc1)NC(=O)[C@H](CO)NC(=O)CNC(=O)[C@H](CC(=O)O)NC(=O)[C@H](C)NC(=O)[C@@H](N)Cc1cnc[nH]1)[C@@H](C)O)[C@@H](C)CC)C(=O)N[C@@H](CC(N)=O)C(=O)N[C@@H](Cc1c[nH]c2ccccc12)C(=O)N[C@@H](CC(C)C)C(=O)N[C@H](C(=O)N[C@@H](CCC(N)=O)C(=O)N[C@H](C(=O)N[C@@H](CCCCN)C(=O)N[C@H](C(=O)N[C@H](C(=O)N[C@@H](CC(=O)O)C(=O)O)[C@@H](C)O)[C@@H](C)CC)[C@@H](C)O)[C@@H](C)CC [GLP-2],serum half-life,"[1]; native peptide, cleaved by DPP IV",0.083 h
CC[C@H](C)[C@H](NC(=O)[C@H](Cc1ccccc1)NC(=O)[C@H](CC(=O)O)NC(=O)[C@H](CCCNC(=N)N)NC(=O)[C@H](C)NC(=O)[C@H](C)NC(=O)[C@H](CC(C)C)NC(=O)[C@H](CC(N)=O)NC(=O)[C@H](CC(=O)O)NC(=O)[C@H](CC(C)C)NC(=O)[C@@H](NC(=O)[C@@H](NC(=O)[C@H](CC(N)=O)NC(=O)[C@H](CCSC)NC(=O)[C@H](CCC(=O)O)NC(=O)[C@H](CC(=O)O)NC(=O)[C@H](CO)NC(=O)[C@H](Cc1ccccc1)NC(=O)[C@H](CO)NC(=O)CNC(=O)[C@H](CC(=O)O)NC(=O)CNC(=O)[C@@H](N)Cc1c[nH]cn1)[C@@H](C)O)[C@@H](C)CC)C(=O)N[C@@H](CC(N)=O)C(=O)N[C@@H](Cc1c[nH]c2ccccc12)C(=O)N[C@@H](CC(C)C)C(=O)N[C@H](C(=O)N[C@@H](CCC(N)=O)C(=O)N[C@H](C(=O)N[C@@H](CCCCN)C(=O)N[C@H](C(=O)N[C@H](C(=O)N[C@@H](CC(=O)O)C(=O)O)[C@@H](C)O)[C@@H](C)CC)[C@@H](C)O)[C@@H](C)CC [Teduglutide],serum half-life,[1]; A2G mutation for DPP IV resistance,1.5 h
same,T½ (h),[1]; in vivo,1.5 (0.1) h
same,patients who achieved >20% reduction of PN volume per week from the baseline,[2]; 2 years of treatment,90%
same,patients who obtained >1 additional days PN off per week from the baseline,[2]; 2 years of treatment,70%
same,PN volume,[2]; throughout 2 years of treatment,sustained and continuous reduction of PN volume
Apraglutide,T½,[1]; in vivo,30 h
same,EC50 (/GLP2),GLP-2 receptor,0.5 /GLP2
Glepaglutide,T½,[1]; in vivo,50 h
same,EC50 (/GLP2),GLP-2 receptor,4 /GLP2
